Measured values: patent US20240239790A1, “7-Morpholino-1,6-Naphthyridin-5-yl Derivatives and Pharmaceutical Compositions Thereof Useful as DNA-PK Inhibitor” (adMare Therapeutics Society, priority 2021, published 2024)
Where two headings read alike, the source gives them in different places.

Legend:
[1] = biological target: T1, DNA-PK (Homo sapiens, UniProt P78527); test: DNA-PK Assay for Biochemical Enzymatic Inhibition (ADP Glo Kinase assay); settings: DNA-PK enzyme
T1 construct: purchased Invitrogen PR9107A
Procedure, shortened: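 Human DNA-PK (25 ng) preincubated 15 min with compounds (ten three-fold dilutions) in HEPES pH 7.5, MgCl2, KCl, calf thymus DNA buffer, then substrate 434.4 μM and ATP 64.4 μM (final) for 60 min at room temperature. ADP-Glo luminescence; percent inhibition fitted by four-parameter regression for IC50.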

[2] = biological target: T2, DNA-PK phosphorylation at Serine 2056 (Homo sapiens, UniProt P78527); test: Cellular Assay for Inhibition of DNA-PK Phosphorylation at Serine 2056 in FaDu cells (sandwich ELISA, neocarzinostatin); assay type: cell-based; settings: pSer2056 DNA-PK
T2 construct: FaDu cells were purchased from ATCC; host or cells: FaDu
Procedure, shortened: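 FaDu cells pre-treated with compound (0.3% DMSO) for 1 h, then neocarzinostatin 1 μg/mL final added for 2 h to induce DSBs. Protein-normalised lysates read by sandwich ELISA for total and pSer2056 DNA-PK; % inhibition normalised between DMSO and NCS controls, IC50 from variable-slope log(inhibitor) fit.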

[3] = system: pDNA-PK induction in HCT116 tumour spheroids; test: Multicellular tumour spheroid + radiation, pDNA-PK (ser2056) inhibition, immunohistochemical endpoint, HCT116; assay type: cell-based; settings: Homo sapiens, 20 Gy, 20% O2
Procedure, shortened: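 HCT116 spheroids (~0.5 mm) in MEM/10% FBS, 20% O2, 37° C., pre-incubated 1 h with compound (10 or 5 μM down to 3.5 nM), irradiated 20 Gy, then 2 h further with compound. Cryosections immunostained for pDNA-PK ser2056; EC50 is concentration halving radiation-induced pDNA-PK.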

[4] = system: pDNA-PK induction in FaDU tumour spheroids; test: Multicellular tumour spheroid + radiation, pDNA-PK (ser2056) inhibition, immunohistochemical endpoint, FaDU; assay type: cell-based; settings: Homo sapiens, 20 Gy
Description: Multicellular tumour spheroids determination of compound inhibition of pDNA-PK induction following radiation. Tumour spheroids were grown to approximately 0.5 mm in diameter and irradiated with 20 Gy in combination with inhibitor test compounds to determine their potency. Inhibitor concentration for 50% reduction in pDNA-PK induction (IC50) was determined via immunohistochemical staining in spheroid cryosections taken 2 hours following radiation. For cell survival endpoint 8 Gy radiation was used and 3 hours following radiation spheroids were dissociated, counted and plated for colony forming endpoint.
Spheroid+radiation pDNA-PK. Radiation: 20 Gy. Drug: serial dilution 5 or 10 μM down to 3.5 nM (11 wells). Spheroids: 3-6 spheroids per well (300-500 μm diameter). 20% 02 and 5% CO2. 96 well plate format. Endpoint: fluorescent immunostain pDNA-PK ser2056 and image on microscope. Analysis: determine EC50 concentrations that decreases pDNA-PK induction by 50% after irradiation.
Multicellular tumour spheroids were used to determine potency of test compounds in a 3D tissue environment using inhibition of pDNA-PK induction following radiation or cell survival as the endpoint. For the pDNA-PK endpoint HCT116 or FaDU tumour spheroids were grown to approximately 0.5 mm in diameter and irradiated with 20 Gy in combination with inhibitor test compounds to determine their potency. Experiments were carried out in 96 well plates containing 0.7 mls of MEM media containing 10% FBS and 10 mM glucose under 20% O2 & 5% CO2 at 37° C. Following dilution of compounds 1:1000 from DMSO stocks, compounds were serially diluted from 10 μM down to 3.5 nM and 5-10 spheroids added. 96 well plates were constantly stirred to avoid spheroids settling during the course of the experiment. The inhibitor concentration for 50% reduction in pDNA-PK induction (EC50) was determined via immunohistochemical staining in spheroid cryosections taken 2 hours following radiation using anti-pDNA-PK (ser 2056) and fixed immediately in formalin following sectioning. For cell survival endpoint 8 Gy radiation was used and, 3 hours following radiation, spheroids were dissociated, counted and plated for colony forming endpoint. Data presented in the table compound potency as EC50 [μM].

[5] = Microsomal Stability Assay, mouse liver microsomes; assay type: in vitro ADME; settings: for microsomal CLint at 0.1 uM: male, CD-1, pH 7.4
Description: (§1) Samples were then mixed and centrifuged. Supernatants were used for HPLC-MS/MS analysis. […] Peak areas corresponding to the test compound were recorded.

[6] = system: pH2AX induction in HCT116 ATM-/- multicellular tumour spheroids; test: Prodrug Radiation Sensitization in Multicellular Tumour Spheroids, inhibition of pH2AX induction following radiation; assay type: cell-based; settings: Homo sapiens, HCT-116, 20 Gy
Procedure, shortened: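 HCT116 and FaDu spheroids (~0.5 mm diameter), ATM-deficient lines included, in MEM/10% FBS/10 mM glucose at 37 °C under 20% vs 5% oxygen with stirring. Prodrugs 10 μM down to 3.5 nM, 20 Gy irradiation. pDNA-PK (ser 2056) or pH2AX (ser 139) scored in formalin-fixed cryosections 1 or 2 h post-radiation.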

[7] = Microsomal Stability Assay, human liver microsomes; assay type: in vitro ADME; settings: human liver microsomes, Example 11; for microsomal CLint at 0.1 uM: both sexes, pH 7.4
Description: as §1

[8] = system: FaDu cell line; test: Prodrug Activation in Hypoxic Stirred Tumour Cell Suspensions; settings: 10 μM, 4 hours
[9] = system: FaDu tumour xenograft; test: Tumour Growth Delay, FaDu tumour xenograft-bearing animals, compound ± radiation (TGD-ER); assay type: in vivo; settings: PO
Description: FaDu tumour xenograft-bearing animals were monitored for tumour growth and once average tumour size reached approximately 100-250 mm3, animals were assigned to treatment cohorts using stratified randomization. […]
For BID dosing regimens, at 8 h following the first injection, animals were again administered with test compound at the same dose as their previous administration. Animals were weighed and had tumours measured using calipers three times weekly until the endpoint of maximum tumour volume, 1000 mm3, was reached and animals were euthanized. Tumour volumes were calculated according to the equation L×W^2/2 with the length (mm) being the longer axis of the tumour; in the case that no tumour was palpable, tumour volumes were recorded as 0 mm^3.
Data were calculated as tumour growth normalized to day 0 measurements, with time to tumour doubling determined. Average time to tumour doubling for each group was used to determine a Tumour Growth Delay Enhancement Ratio (TGD-ER): the time to doubling for treatment groups were divided by the time to doubling for irradiation-alone groups to determine group-specific TGD-ER values, and these were assigned scores based on defined response ranges: values>2.5=A, 1-2.5=B, <1=C.

[10] = neocarzinostatin 1 μg/mL, Table 1
[11] = HCT-116, 2 h, spheroids, Example 8, read-out: Cell line: HCT116 Immunohistochemical endpoint pDNA-PK inhibition EC50
[12] = HCT-116, 2 hours following radiation, Example 9 Study 2, read-out: Spheroid Cell line: HCT116 Immunohistochemical endpoint pDNA-PK inhibition EC50
[13] = HCT-116, Spheroid, Cell Line: HCT115 (so in the source), 2 hours following radiation, Example 7, read-out: EC50, Immunohistochemical endpoint, pDNA-PK inhibition
[14] = 2 hours following radiation, 20% O2, Example 9 Study 2, read-out: Spheroid Cell line: FaDU Immunohistochemical endpoint pDNA-PK inhibition EC50
[15] = 2 h, spheroids, 20% O2, Example 8, read-out: Cell line: FaDU Immunohistochemical endpoint pDNA-PK inhibition EC50
[16] = mouse liver microsomes 0.1 mg/mL, 0.1 uM compound
[17] = 5% O2, inner layers, read-out: Prodrug 5% O2 Inner layers EC50
[18] = 5% O2, outer layers, read-out: Prodrug 5% O2 Outer layers EC50
[19] = 20% O2, outer layers, read-out: Prodrug 20% O2 Outer layers EC50
[20] = mouse liver microsomes, Example 11

Row | Structure (SMILES) | IC50 ([1]; Table 1) | IC50 [2, 10] | EC50 [3, 11] | EC50 [3, 12] | EC50 [3, 13] | EC50 [4, 14] | EC50 [4, 15] | also measured
1 | COc1ccc(NC(=O)N[C@H]2CC[C@@H](Oc3nc(N4CCOCC4)cc4ncccc34)CC2)cc1 [Compound 152, 1-(4-Methoxyphenyl)-3-((1s,4s)-4-((7-morpholino-1,6-naphthyridin-5-yl)oxy)cyclohexyl)urea] | 0.0005 to 0.001 µM | 0.1 to 1 µM | 1 to 10 µM | 1 to 10 µM | 1 to 10 µM | 0.5 to 1 µM | 0.5 to 1 µM | –
2 | O=C(Nc1ccncc1)[C@H]1CC[C@@H](Oc2nc(N3CCOCC3)cc3ncccc23)CC1 [Compound 154e, (1S,4S)-4-((7-morpholino-1,6-naphthyridin-5-yl)oxy)-N-(pyridin-4-yl)cyclohexane-1-carboxamide] | 0.001 to 0.01 µM | 0.1 to 1 µM | 1 to 10 µM | 1 to 10 µM | 1 to 10 µM | 0.5 to 1 µM | 0.5 to 1 µM | microsomal CLint at 0.1 uM [5, 16]: > 116 µL/min/mg; Microsomal Stability Mouse % rem. 60 min ([5]; mouse liver microsomes): E (% remaining = 0-25%)
3 | CN(C)C(=O)COc1cnc(N[C@H]2CC[C@@H](Oc3nc(N4CCOCC4)cc4ncc(Br)cc34)CC2)nc1 [Compound 178, 2-((2-(((1s,4s)-4-((3-bromo-7-morpholino-1,6-naphthyridin-5-yl)oxy)cyclohexyl)amino)pyrimidin-5-yl)oxy)-N,N-dimethylacetamide] | < 0.0005 µM | 0.1 to 1 µM | 0.5 to 1 µM | 0.5 to 1 µM | 0.5 to 1 µM | 1 to 10 µM | 1 to 10 µM | –
4 | O=C(O)c1cnc2cc(N3CCOCC3)nc(O[C@H]3CC[C@@H](Nc4ncccn4)CC3)c2c1 [Compound 183, 7-morpholino-5-(((1s,4s)-4-(pyrimidin-2-ylamino)cyclohexyl)oxy)-1,6-naphthyridine-3-carboxylic acid] | < 0.0005 µM | 1 to 10 µM | 1 to 10 µM | 1 to 10 µM | 1 to 10 µM | 1 to 10 µM | 1 to 10 µM | microsomal CLint at 0.1 uM [5, 16]: < 116 µL/min/mg; Microsomal Stability Mouse % rem. 60 min ([5]; mouse liver microsomes): H (% remaining = 75-100%)
5 | Cn1c(CN(c2cnc3cc(N4CCOCC4)nc(OC4CCC(NC(=O)c5ncccn5)CC4)c3c2)S(C)(=O)=O)cnc1[N+](=O)[O-] (centres unmarked) [LFA016, N-[4-[[3-[(3-Methyl-2-nitro-imidazol-4-yl)methyl-methylsulfonyl-amino]-7-morpholino-1,6-naphthyridin-5-yl]oxy]cyclohexyl]pyrimidine-2-carboxamide] | – | – | – | – | – | – | – | IC50 ([1]; Table 2): 0.01 to 0.15 µM; IC50 ([2]; Table 2): 10 to 30 µM; EC50 [6, 17]: 1 to 10 µM; EC50 [6, 18]: 1 to 10 µM; EC50 [6, 19]: 10 to 100 µM; microsomal CLint at 0.1 uM [5, 20]: < 116 µL/min/mg; Microsomal Stability Mouse % rem. 60 min [5, 20]: G (% remaining = 50-75%); microsomal CLint at 0.1 uM [7]: < 116 µL/min/mg; Microsomal Stability Human % rem. 60 min [7]: F (% remaining = 25-50%); Fraction of prodrug converted to active form, Hypoxic 0.2% O2 [8]: C (C is 0.02 to 0.05); Fraction of prodrug converted to active form, Oxic 5% O2 [8]: D (D is 0 to 0.02)
6 | CN1CCN(CCOc2cnc(N[C@H]3CC[C@@H](Oc4nc(N5CCOCC5)cc5ncc(NS(C)(=O)=O)cc45)CC3)nc2)CC1 [LFA031, N-[5-[4-[[5-[2-(4-Methylpiperazin-1-yl)ethoxy]pyrimidin-2-yl]amino]cyclohexoxy]-7-morpholino-1,6-naphthyridin-3-yl]methanesulfonamide] | – | – | – | – | – | – | – | TGD-ER Range Score ([9]; 30 mpk BID + 10 Gy): B (1-2.5=B)
7 | CC(c1cnc([N+](=O)[O-])n1C)N(c1cnc2cc(N3CCOCC3)nc(O[C@H]3CC[C@@H](Nc4ncc(OCCN5CCN(C)CC5)cn4)CC3)c2c1)S(C)(=O)=O (some centres unmarked) [LFA033, N-[1-(3-Methyl-2-nitro-imidazol-4-yl)ethyl]-N-[5-[4-[[5-[2-(4-methylpiperazin-1-yl)ethoxy]pyrimidin-2-yl]amino]cyclohexoxy]-7-morpholino-1,6-naphthyridin-3-yl]methanesulfonamide] | – | – | – | – | – | – | – | TGD-ER Range Score ([9]; 50 mpk BID + 10 Gy): C (<1=C)
8 | CN(C)C(=O)COc1cnc(N[C@H]2CC[C@@H](Oc3nc(N4CCOCC4)cc4ncc(OCc5cnc([N+](=O)[O-])n5C)cc34)CC2)nc1 [LFA114, N,N-Dimethyl-2-[2-[[4-[[3-[(3-methyl-2-nitro-imidazol-4-yl)methoxy]-7-morpholino-1,6-naphthyridin-5-yl]oxy]cyclohexyl]amino]pyrimidin-5-yl]oxy-acetamide] | – | – | – | – | – | – | – | IC50 ([1]; Table 2): 0.01 to 0.15 µM; IC50 ([2]; Table 2): 10 to 30 µM; EC50 [6, 17]: 0.01 to 0.5 µM; EC50 [6, 18]: 0.5 to 1 µM; EC50 [6, 19]: 1 to 10 µM; microsomal CLint at 0.1 uM [5, 20]: > 116 µL/min/mg; Microsomal Stability Mouse % rem. 60 min [5, 20]: E (% remaining = 0-25%); microsomal CLint at 0.1 uM [7]: < 116 µL/min/mg; Microsomal Stability Human % rem. 60 min [7]: E (% remaining = 0-25%); Fraction of prodrug converted to active form, Hypoxic 0.2% O2 [8]: A (A is 0.15 to 1); Fraction of prodrug converted to active form, Oxic 5% O2 [8]: B (B is 0.05 to 0.15)
